Results reported in ChEMBL document CHEMBL5257025, “Artemisinin-Derived Dimers: Potent Antimalarial and Anticancer Agents” (J Med Chem, 2016).
Blank lines part the entries; values can stand above or below the compound they belong to.

Assays:
Plasmodium falciparum [1] = test: Antimalarial activity against Plasmodium falciparum NF54 assessed as reduction in cell growth; type: functional, organism-based
TRAMP-C1A = test: Cytotoxicity against mouse TRAMP-C1A cells assessed as inhibition of cell growth measured after 72 hrs by MTT assay; type: functional, cell-based
C2G cell line = test: Cytotoxicity against mouse C2G cells assessed as inhibition of cell growth measured after 72 hrs by MTT assay; type: functional, cell-based
C2D cell line = test: Cytotoxicity against mouse C2D cell line assessed as inhibition of cell growth measured after 72 hrs by MTT assay; type: functional, cell-based
SK-MEL-2 = test: Antiproliferative activity against human SK-MEL-2 cells assessed as reduction in cell viability incubated for 48 hrs by MTT assay; type: functional, cell-based; conditions: SK-MEL-2, 48 h
HeLa = test: Antiproliferative activity against human Hela cells assessed as cell growth inhibition measured after 48 hrs by MTT assay; type: functional, cell-based
[2] = Cytotoxicity against human HFF cells assessed as cell growth inhibition measured after 48 hrs by MTT assay; type: toxicity, cell-based
[3] = Antiproliferative activity against human 1205Lu cells assessed as reduction in cell growth; type: functional, cell-based
[4] = Cytotoxicity against rat MTLn3 cells assessed as cell growth inhibition; type: toxicity, cell-based
HCT-116 = test: Antiproliferative activity against human HCT-116 cells assessed as growth after 48 hrs by MTT assay; type: functional, cell-based; conditions: HCT-116, 48 h
TRAMP-C2H = test: Cytotoxicity against mouse TRAMP-C2H cells assessed as inhibition of cell growth measured after 72 hs by MTT assay; type: functional, cell-based
Ehrlich = test: Cytotoxicity against mouse Ehrlich cells assessed as growth inhibition at 100 ug/ml; type: functional, cell-based
TK-10 = test: Growth inhibition of human TK-10 cells assessed as cell growth inhibition measured after 48 hrs by MTT assay; type: functional
Plasmodium falciparum [5] = test: Antimalarial activity against Plasmodium falciparum 3D7 assessed as inhibition of malarial growth; type: functional, organism-based
MCF7 [6] = test: Growth inhibition of human MCF7 cells assessed as cell growth inhibition incubated for 48 hrs by MTT assay; type: functional
UACC-62 = test: Growth inhibition of human UACC-62 cells assessed as cell growth inhibition measured after 48 hrs by MTT assay; type: functional
CAKI-1 = test: Antiproliferative activity against human CAKI-1 cells assessed as reduction in cell viability after 48 hrs by SRB assay; type: functional, cell-based; conditions: CAKI-1, 48 h
OVCAR-3 = test: Antiproliferative activity against human OVCAR-3 cells assessed as reduction in cell viability; type: functional, cell-based
SK-OV-3 = test: Antiproliferative activity against human SK-OV-3 cells assessed as reduction in cell viability incubated for 48 hrs by MTT assay; type: functional, cell-based; conditions: SK-OV-3, 48 h
MCF7 [7] = test: Antiproliferative activity against human MCF7 cells assessed as reduction in cell viability measured after 48 hrs by SRB assay; type: functional, cell-based; conditions: MCF7, 48 h
A498 = test: Antiproliferative activity against human A498 cells assessed as reduction in cell viability; type: functional, cell-based
DU-145 = test: Antiproliferative activity against human DU-145 cells assessed as reduction in cell viability; type: functional, cell-based
PC-3 = test: Antiproliferative activity against human PC-3 cells assessed as cell growth inhibition; type: functional, cell-based
M14 = test: Antiproliferative activity against human M14 cells assessed as growth inhibition incubated for 72 hrs by luminescence assay; type: functional, cell-based; conditions: M14, 72 h
LOX IMVI = test: Antiproliferative activity against human LOX IMVI cells assessed as cell growth inhibition; type: functional, cell-based
K562 = test: Antiproliferative activity against human K562 cells assessed as reduction in cell viability by MTT assay; type: functional, cell-based
T47D = test: Antiproliferative activity against human T47D cells assessed as inhibition of cell growth; type: functional, cell-based
HL-60 = test: Antiproliferative activity against human HL-60 cells assessed as reduction in cell viability incubated for 48 hrs by MTT assay; type: functional, cell-based; conditions: HL-60, 48 h
XF498 = test: Antiproliferative activity against human XF498 cells assessed as reduction in cell viability incubated for 48 hrs by MTT assay; type: functional, cell-based; conditions: XF498, 48 h
SK-MEL [8] = test: Antiproliferative activity against human SK-MEL cells assessed as reduction in cell viability incubated for 48 hrs by MTT assay; type: functional, cell-based
Plasmodium falciparum [9] = test: microbe, parasite or virus in culture; conditions: D6
Description: Antiplasmodial activity against Plasmodium falciparum D6 assessed as inhibition of parasitic growth

[10] = Cytotoxicity against CHO cells assessed as reduction in cell viability; type: toxicity, cell-based, Cricetulus griseus; conditions: chinese hamster, read-out: TC50 (the source's name)
Plasmodium falciparum [11] = test: microbe, parasite or virus in culture; conditions: K1
Description: Antiplasmodial activity against Plasmodium falciparum K1 assessed as inhibition of parasitic growth

Plasmodium falciparum [12] = test: Antimalarial activity against Plasmodium falciparum D10 assessed as inhibition of parasitic growth; type: functional, organism-based
Plasmodium falciparum [13] = test: microbe, parasite or virus in culture; conditions: Dd2
Description: Antiplasmodial activity against Plasmodium falciparum Dd2 assessed as inhibition of parasitic growth

[14] = Cytotoxicity against African green monkey Vero cells; type: toxicity, cell-based; conditions: chlorocebus sabaeus, read-out: TC50 (the source's name)
Plasmodium falciparum [15] = test: microbe, parasite or virus in culture; conditions: W2
Description: Antiplasmodial activity against Plasmodium falciparum W2 assessed as inhibition of cell growth

SK-MEL [16] = test: Antiproliferative activity against human SK-MEL cells assessed as reduction in cell growth inhibition; type: functional, cell-based
BeWo = test: Antiproliferative activity against human BeWo cells assessed as reduction in cell viability after 72 hrs by MTT assay; type: functional, cell-based
BT-549 = test: Antiproliferative activity against human BT-549 cells assessed as reduction in cell viability incubated for 48 hrs by MTT assay; type: functional, cell-based; conditions: BT-549, 48 h
[17] = Cytotoxicity against pig LLC-PK1 cells; type: toxicity, cell-based, Sus scrofa; conditions: read-out: TC50 (the source's name)
HT-29 = test: cells; conditions: Homo sapiens, HT-29, 72 h
EL4 = test: Antiproliferative activity against mouse EL4 cells assessed as cell growth inhibition incubated for 72 hrs by MTT assay; type: functional, cell-based; conditions: EL4, 72 h
[18] = Antiproliferative activity against human YD-10B cells assessed as cell growth inhibition measured after 72 hrs by MTT assay; type: functional, cell-based
P388 = test: Antiproliferative activity against mouse P388 cells assessed as cell growth inhibition incubated for 72 hrs by MTT assay; type: functional, cell-based; conditions: P388, 72 h
KB = test: Antiproliferative activity against human KB cells assessed as reduction in cell viability incubated for 48 hrs by MTT assay; type: functional, cell-based

SMILES: C[C@@H]1CC[C@H]2[C@@H](C)C(CC(CC3O[C@@H]4O[C@]5(C)CC[C@@H]6[C@@H](C)CC[C@H]([C@@H]3C)[C@]46OO5)C(=O)O)O[C@H]3O[C@@]4(C)CC[C@@H]1[C@]32OO4 (some centres not stated)
IC50 (Plasmodium falciparum [1]): 2.4 nM
IC50 (TRAMP-C1A): 159 nM
IC50 (C2G cell line): 134 nM
IC50 (C2D cell line): 231 nM

SMILES: C[C@@H]1CC[C@H]2[C@@H](C)C(OCC(=O)COC3O[C@@H]4O[C@]5(C)CC[C@@H]6[C@@H](C)CC[C@H]([C@@H]3C)[C@]46OO5)O[C@H]3O[C@@]4(C)CC[C@@H]1[C@]32OO4 (some centres not stated)
IC50 (SK-MEL-2): 560 nM

SMILES: C[C@@H]1CC[C@H]2[C@@H](C)C(CC(CO)CC3O[C@H]4O[C@@]5(C)CC[C@H]6[C@H](C)CC[C@@H]([C@H]3C)[C@@]46OO5)O[C@H]3O[C@@]4(C)CC[C@@H]1[C@]32OO4 (some centres not stated)
IC50 (Plasmodium falciparum [1]): 0.87 nM
IC50 (HeLa): 1060 nM
IC50 at 48 h [2]: 48100 nM
IC50 [3]: 4900 nM
IC50 [4]: 43 nM
IC50 (C2G cell line): 15.4 nM
IC50 (C2D cell line): 18.5 nM
IC50 (HCT-116): 100 nM
IC50 (TRAMP-C2H): 9.2 nM

SMILES: C[C@H]1[C@@H](O[C@H]2O[C@H]3O[C@@]4(C)CC[C@H]5[C@H](C)CC[C@@H]([C@H]2C)[C@@]35OO4)O[C@H]2O[C@@]3(C)CC[C@H]4[C@H](C)CC[C@@H]1[C@@]24OO3
IC50 (Ehrlich): 31200 nM

SMILES: C[C@@H]1CC[C@H]2[C@@H](C)C(OCCCN3CC[N+](CCCOC4O[C@@H]5O[C@]6(C)CC[C@@H]7[C@@H](C)CC[C@H]([C@@H]4C)[C@]57OO6)(CCNc4ccnc5cc(Cl)ccc45)CC3)O[C@H]3O[C@@]4(C)CC[C@@H]1[C@]32OO4 (some centres not stated)
GI50 (TK-10): 80 nM
IC50 (Plasmodium falciparum [5]): 29.5 nM
GI50 (MCF7 [6]): 30 nM
GI50 (UACC-62): 40 nM

SMILES: C[C@@H]1CC[C@H]2[C@@H](C)C(OCC(COC3O[C@H]4O[C@@]5(C)CC[C@H]6[C@H](C)CC[C@@H]([C@H]3C)[C@@]46OO5)OC(=O)CCC(=O)O)O[C@H]3O[C@@]4(C)CC[C@@H]1[C@]32OO4 (some centres not stated)
IC50 (CAKI-1): 30000 nM
IC50 (OVCAR-3): 250 nM
IC50 (SK-OV-3): 25000 nM
IC50 (MCF7 [7]): 200 nM
IC50 (A498): 20000 nM
IC50 (DU-145): 20000 nM
IC50 (PC-3): 40 nM
IC50 (M14): 30000 nM
IC50 (LOX IMVI): 80 nM
IC50 (K562): 200 nM
IC50 (T47D): 75 nM
IC50 (HL-60): 60 nM

SMILES: C[C@@H]1CC[C@H]2[C@@H](C)C(CCC(=O)NCCCN3CCN(CCCNC(=O)CCC4O[C@H]5O[C@]6(C)CC[C@H]7[C@H](C)CC[C@@H]([C@H]4C)[C@@]57OO6)CC3)O[C@H]3O[C@]4(C)CC[C@@H]1[C@]32OO4 (some centres not stated)
IC50 (XF498): 460 nM
IC50 (SK-MEL [8]): 450 nM

SMILES: C[C@@H]1CC[C@H]2[C@@H](C)C(CC(COC(=O)c3cc[n+]([O-])cc3)CC3O[C@H]4O[C@@]5(C)CC[C@H]6[C@H](C)CC[C@@H]([C@H]3C)[C@@]46OO5)O[C@H]3O[C@@]4(C)CC[C@@H]1[C@]32OO4 (some centres not stated)
IC50 (Plasmodium falciparum [1]): 0.53 nM
IC50 (TRAMP-C1A): 84.6 nM
IC50 (C2G cell line): 47.4 nM
IC50 (C2D cell line): 62.1 nM
IC50 (TRAMP-C2H): 36.1 nM

SMILES: C[C@H]1[C@@H](O)O[C@H]2O[C@@]3(C)CC[C@H]4[C@H](C)CC[C@@H]1[C@@]24OO3
IC50 (Plasmodium falciparum [5]): 2.09 nM
IC50 (Plasmodium falciparum [9]): 2.09 nM
CC50 [10]: 148000 nM
IC50 (Plasmodium falciparum [11]): 2.09 nM
IC50 (Plasmodium falciparum [12]): 2.09 nM
IC50 (Plasmodium falciparum [13]): 2.09 nM
CC50 [14]: 1410 nM
IC50 (Plasmodium falciparum [15]): 2.09 nM

IC50 (SK-MEL [16]): 0.1 nM
IC50 (SK-OV-3): 0.1 nM
IC50 (BT-549): 0.1 nM
IC50 (HT-29): 0.1 nM
IC50 (MCF7 [7]): 0.1 nM
IC50 (P388): 0.1 nM
IC50 (KB): 0.1 nM
SMILES: CC(=O)O[C@H]1C(=O)[C@@]2(C)[C@H]([C@H](OC(=O)c3ccccc3)[C@]3(O)C[C@H](OC(=O)[C@H](O)[C@@H](NC(=O)c4ccccc4)c4ccccc4)C(C)=C1C3(C)C)[C@]1(OC(C)=O)CO[C@@H]1C[C@@H]2O [PACLITAXEL]
IC50 (BeWo): 0.1 nM
CC50 [17]: 4390 nM
IC50 (EL4): 0.1 nM
IC50 [18]: 0.1 nM
